One experiment relates to Vero. Kind of experiment: Cytotoxicity against African green monkey Vero cells by green fluorescent protein microplate assay. Format: cell-based. As to conditions: Chlorocebus sabaeus.
Experiment [1] deals with Mycobacterium tuberculosis. Kind of experiment: Antitubercular activity against Mycobacterium tuberculosis H37Ra infected in African green monkey Vero cells measured daily for 8 days by green fluorescent protein microplate assay. Format: functional. As to conditions: 192 h.

Structures are written as SMILES. Values after ≈ are worked out from the molar mass of the structure shown.

The text below walks through data of ChEMBL document CHEMBL3785000, “Antitubercular Lanostane Triterpenes from Cultures of the Basidiomycete Ganoderma sp. BCC 16642” (J Nat Prod, 2016).

As a reminder, the IC50 is the concentration needed to halve the response being measured. Broadly, the MIC is the smallest concentration in the dilution series that meets the test's criterion for growth inhibition. On to `CC(=O)O[C@@H](C/C=C(\C)C(=O)O)[C@@H](C)[C@H]1CC[C@@]2(C)C3=CC[C@H]4C(C)(C)C(=O)CC[C@]4(C)C3=CC[C@]12C`, for which it took 35 µM to reach half-maximal inhibition in the experiment with Vero (IC50). Further, in experiment [1], the MIC is > 50 µg/mL. For `CC(=O)O[C@@H](C/C=C(\C)C(=O)O)[C@@H](C)[C@H]1C[C@H](OC(C)=O)[C@@]2(C)C3=C(CC[C@]12C)[C@@]1(C)CC[C@H](OC(C)=O)C(C)(C)[C@@H]1CC3`, in that order: 15 µM and 3.13 µg/mL (≈ 5.09 µM).

Take `CC(=O)O[C@@H](C/C=C(\C)C(=O)O)[C@@H](C)[C@H]1CC[C@@]2(C)C3=C(CC[C@]12C)[C@@]1(C)CCC(=O)C(C)(C)[C@@H]1CC3`: the IC50 in the experiment with Vero was 93 µM. For the same compound, the MIC in experiment [1] is > 50 µg/mL. In the same order, the values of `CC(=O)O[C@@H](C/C=C(\C)C(=O)O)[C@@H](C)[C@H]1CC[C@@]2(C)C3=C(CC[C@]12C)[C@@]1(C)CCC(=O)C(C)(C)[C@@H]1CC3=O` are 91 µM and 50 µg/mL (≈ 94.9 µM). For the compound `CC(=O)O[C@@H](C/C=C(\C)C(=O)O)[C@@H](C)[C@H]1C[C@H](OC(C)=O)[C@@]2(C)C3=C(CC[C@]12C)[C@@]1(C)CC[C@H](OC(C)=O)C(C)(C)[C@@H]1C[C@H]3O`, the IC50 in the experiment on Vero stood at 28 µM. For the same compound, the lowest concentration to inhibit growth in experiment [1] (MIC) was 3.13 µg/mL (≈ 4.96 µM). For `CC(=O)O[C@@H](C/C=C(\C)C(=O)O)[C@@H](C)[C@H]1CC[C@@]2(C)C3=CC[C@H]4C(C)(C)[C@H](O)CC[C@]4(C)C3=CC[C@]12C`, in that order: > 98 µM and 50 µg/mL (≈ 97.5 µM). In the same order, the values of `CC(=O)O[C@@H](C/C=C(\C)C(=O)O)[C@@H](C)[C@H]1C[C@H](O)[C@@]2(C)C3=CC[C@H]4C(C)(C)C(=O)CC[C@]4(C)C3=CC[C@]12C` are > 95 µM and > 50 µg/mL. In the same order, the values of `C/C(=C\CC[C@@H](C)[C@H]1C[C@H](O)[C@@]2(C)C3=CC[C@H]4C(C)(C)C(=O)CC[C@]4(C)C3=CC[C@]12C)C(=O)O` are > 107 µM and 50 µg/mL (≈ 107 µM).

Take `CC(=O)O[C@H]1CC[C@]2(C)C3=C(CC[C@H]2C1(C)C)[C@]1(C)[C@@H](OC(C)=O)C[C@H]([C@H](C)CC/C=C(\C)C(=O)O)[C@@]1(C)CC3`: it took 22 µM to reach half-maximal inhibition in the experiment with Vero (IC50). This compound gave an MIC in experiment [1] of 0.781 µg/mL (≈ 1.4 µM).

Turning to `CC(=O)O[C@@H](C/C=C(\C)C(=O)O)[C@@H](C)[C@H]1C[C@H](OC(C)=O)[C@@]2(C)C3=CC[C@H]4C(C)(C)[C@@H](OC(C)=O)CC[C@]4(C)C3=CC[C@]12C`, in the experiment on Vero, the IC50 came out at 16 µM. Besides, in experiment [1], the MIC came to 0.781 µg/mL (≈ 1.27 µM).

`CC(=O)O[C@@H](C/C=C(\C)C(=O)O)[C@@H](C)[C@H]1CC[C@@]2(C)C3=C(CC[C@]12C)[C@@]1(C)CC[C@@H](OC(C)=O)C(C)(C)[C@@H]1CC3=O` gave an IC50 in the experiment on Vero of 33 µM. In experiment [1], the MIC is > 50 µg/mL.

In turn, `CO[C@@H]1C[C@H]2C(C)(C)[C@@H](OC(C)=O)CC[C@]2(C)C2=C1[C@]1(C)CC[C@H]([C@H](C)[C@H](C/C=C(\C)C(=O)O)OC(C)=O)[C@@]1(C)CC2` yielded an IC50 with Vero of 28 µM. Besides, in experiment [1], it took 25 µg/mL (≈ 42.6 µM) to inhibit growth (MIC). In the same order, the values of `CC(=O)O[C@@H]1CC[C@]2(C)C3=CC[C@]4(C)[C@@H]([C@H](C)CC/C=C(\C)C(=O)O)CC[C@@]4(C)C3=CC[C@H]2C1(C)C` are 89 µM and > 50 µg/mL. For `CC(=O)O[C@H]1CC[C@]2(C)C3=C([C@H](O)C[C@H]2C1(C)C)[C@]1(C)CC[C@H]([C@H](C)CC/C=C(\C)C(=O)O)[C@@]1(C)CC3`, in that order: 72 µM and 25 µg/mL (≈ 48.6 µM).

Regarding `CO[C@@H]1C[C@H]2C(C)(C)[C@@H](OC(C)=O)CC[C@]2(C)C2=C1[C@]1(C)[C@@H](OC(C)=O)C[C@H]([C@H](C)[C@H](C/C=C(\C)C(=O)O)OC(C)=O)[C@@]1(C)CC2`, the midpoint of inhibition with Vero, the IC50, lay at 26 µM. Moreover, 12.5 µg/mL (≈ 19.4 µM) was the least that counted as inhibitory in experiment [1] (MIC). For `CC(=O)O[C@@H](C/C=C(\C)C(=O)O)[C@@H](C)[C@H]1C[C@H](OC(C)=O)[C@@]2(C)C3=CC[C@H]4C(C)(C)[C@H](OC(C)=O)CC[C@]4(C)C3=CC[C@]12C` [GANODERIC ACID T], in that order: 28 µM and 6.25 µg/mL (≈ 10.2 µM). For `CC(=O)O[C@@H](C/C=C(\C)C(=O)O)[C@@H](C)[C@H]1C[C@H](OC(C)=O)[C@@]2(C)C3=C(CC[C@]12C)[C@@]1(C)CC[C@H](O)C(C)(C)[C@@H]1CC3`, in that order: 30 µM and 50 µg/mL (≈ 87.3 µM). For `CC(=O)O[C@@H](C/C=C(\C)C(=O)O)[C@@H](C)[C@H]1C[C@H](OC(C)=O)[C@@]2(C)C3=C(CC[C@]12C)[C@@]1(C)CCC(=O)C(C)(C)[C@@H]1CC3`, in that order: 86 µM and > 50 µg/mL.

Compound `Cc1c2ccncc2c(C)c2c1[nH]c1ccccc12` [ELLIPTECINE] yielded an IC50 in the experiment with Vero of 3.3 µM. In the case of `CC(=O)O[C@@H](C/C=C(\C)C(=O)O)[C@@H](C)[C@H]1C[C@H](OC(C)=O)[C@@]2(C)C3=C(CC[C@]12C)[C@@]1(C)CCC(=O)C(C)(C)[C@@H]1C[C@H]3O`, in the experiment on Vero, the IC50 was > 85 µM. In addition, the MIC in experiment [1] is > 50 µg/mL. As to `NNC(=O)c1ccncc1` [ISONIAZID], in experiment [1], the MIC was determined as 0.094 µg/mL (≈ 0.685 µM). Compound `CO[C@@H]1C[C@H]2C(C)(C)C(=O)CC[C@]2(C)C2=C1[C@]1(C)CC[C@H]([C@H](C)[C@H](C/C=C(\C)C(=O)O)OC(C)=O)[C@@]1(C)CC2` displayed a concentration for half-maximal inhibition (IC50) in the experiment on Vero of 36 µM. Besides, inhibition of growth in experiment [1] (MIC) required 50 µg/mL (≈ 92.1 µM).

In the experiment with Vero, `CC(=O)O[C@@H](C/C=C(\C)C(=O)O)[C@@H](C)[C@H]1CC[C@@]2(C)C3=CC[C@H]4C(C)(C)[C@@H](OC(C)=O)CC[C@]4(C)C3=CC[C@]12C` had a half-maximal inhibitory concentration (IC50) of 32 µM. The compound also came in with an MIC in experiment [1] of 12.5 µg/mL (≈ 22.5 µM). For `CC(=O)O[C@@H](C/C=C(\C)C(=O)O)[C@@H](C)[C@H]1CC[C@@]2(C)C3=C(CC[C@]12C)[C@@]1(C)CCC(=O)C(C)(C)[C@@H]1C[C@H]3O`, in that order: > 95 µM and > 50 µg/mL.

In the experiment on Vero, `CC(=O)O[C@H]1CC[C@]2(C)C3=C([C@H](O)C[C@H]2C1(C)C)[C@]1(C)[C@@H](OC(C)=O)C[C@H]([C@H](C)CC/C=C(\C)C(=O)O)[C@@]1(C)CC3` yielded an IC50 of 32 µM. Further, the minimum inhibitory concentration (MIC) in experiment [1] was 1.56 µg/mL (≈ 2.72 µM). Turning to `CO[C@@H]1C[C@H]2C(C)(C)[C@@H](OC(C)=O)CC[C@]2(C)C2=C1[C@]1(C)[C@@H](O)C[C@H]([C@H](C)CC/C=C(\C)C(=O)O)[C@@]1(C)CC2`, in the experiment on Vero, the IC50 amounted to 32 µM. Further, in experiment [1], the MIC was found to be 50 µg/mL (≈ 91.8 µM).
